Data set [1] is described as follows: Polymorphic screen: suspending 50 mg of compound in solvent, suspension outcome. The class given is physicochemical. The settings on record: left overnight. The procedure: The polymorphic screening of the compound of Formula IV-I was performed by suspending 50 mg of the compound of Formula IV-I in each of the solvents as described in Table 12 at a volume of 1.5 mL for all but water (1 mL) in a separate vial. The vials were sealed and the suspensions were left overnight. In the following day, the vials with the compound of Formula IV-I dissolved were opened and the solutions were left to evaporate at room temperature. The solid materials were collected after the complete evaporation of the solvent. In the vials where the compound of Formula IV-I was not fully dissolved, the mixtures were left to slurrying for another 96 h. The slurries were filtered and the obtained solids were analyzed.

The subject of data set [2] is subject suffering from alcohol use disorder. In words: Pharmaceutical composition administered to a subject suffering from alcohol use disorder. In kind it is in vivo. The procedure: [drawing 31] […] is administered to a subject suffering from alcohol use disorder. […] The subject is also found to have less cravings on the Visual Analogue Scale of Craving, which has 4 questions to assess domains of alcohol craving: the intention to drink, loss of control, relief craving, and urge intensity with a 0-20 point visual analogue scale for each item, with 0 indicating no craving and 20 indicating severe craving.
[drawing 32] is administered to a subject suffering from alcohol use disorder. […] The subject is also found to have less cravings on the Visual Analogue Scale of Craving, which has 4 questions to assess domains of alcohol craving: the intention to drink, loss of control, relief craving, and urge intensity with a 0-20 point visual analogue scale for each item, with 0 indicating no craving and 20 indicating severe craving.

In the case of `C[S+]([O-])C(=O)N1CCC(O)CC1` (centres unmarked) [Formula IV-I, 1-S-Methyl 1-S-oxo 4-hydroxy-1-piperidinecarbothioate], the Suspension outcome in data set [1] (50 mg in 1 mL H2O) is on record as “Dissolved”; in data set [1] (50 mg in 1.5 mL 1-propanol), “Slurry”; in data set [1] (50 mg in 1.5 mL 2-propanol), “Slurry”; in data set [1] (50 mg in 1.5 mL Acetone), “Slurry”; in data set [1] (50 mg in 1.5 mL Acetonitrile), “Slurry”; in data set [1] (50 mg in 1.5 mL Chloroform), “Dissolved”. Also, the Suspension outcome in data set [1] (50 mg in 1.5 mL Cyclohexane) is “Slurry”; in data set [1] (50 mg in 1.5 mL Dichloromethane) it was “Dissolved”; in data set [1] (50 mg in 1.5 mL EtOAc) it was “Slurry”; in data set [1] (50 mg in 1.5 mL EtOH) it was “Dissolved”; in data set [1] (50 mg in 1.5 mL Ethyl ether) it was “Slurry”; in data set [1] (50 mg in 1.5 mL Isopropyl acetate), “Slurry”. Moreover, the Suspension outcome in data set [1] (50 mg in 1.5 mL MeOH) was “Dissolved”; in data set [1] (50 mg in 1.5 mL Methyl acetate), “Slurry”; in data set [1] (50 mg in 1.5 mL Nitromethane), “Dissolved”; in data set [1] (50 mg in 1.5 mL Octane) it was “Slurry”; in data set [1] (50 mg in 1.5 mL THF), “Slurry”; in data set [1] (50 mg in 1.5 mL Toluene) it was “Slurry”. In addition, the Suspension outcome in data set [1] (50 mg in 1.5 mL n-hexane) and in data set [1] (50 mg in 1.5 mL n-pentane) was “Slurry” each time.
Regarding `C[S+]([O-])C(=O)N1CCC(O)CC1` (centres unmarked) [drawing 31], the “Cravings on the Visual Analogue Scale of Craving” value in data set [2] (4 questions, 0-20 point scale per item) is reported as “less cravings”. Moreover, in data set [2] (after 2 weeks of being treated), the “Craving scale after 2 weeks of treatment” value is reported as “reduction in the craving scale”. Also, in data set [2] (compared to a 90 day period prior to treatment), the “Alcohol consumed over a 90 day period” value is reported as “consume less alcohol”. Moreover, the “Percentage of no heavy drinking days” value in data set [2] (during the period of treatment (e.g., 1 to 13 weeks)) is reported as “increase in the percentage of no heavy drinking days”. For the same molecule, the “Number of drinks consumed in the natural environment” value in data set [2] (first 13 days of medication period, timeline follow-back interview) is listed as “reduction in the number of drinks”. Moreover, the “Alcohol drinking of the treated subject” value in data set [2] (subject with alcohol use disorder) is given as “drink less or no alcohol”.
